From patent US8147837B2, “Use of mycobacterial mannosylated lipoglycans peptide mimotopes for treating inflammation” (priority 2004, dated 2012)
Ends that are not written are not given here.

Columns and labels:
[1] = system: CS40 anti-ManLAM monoclonal antibody; assay: ELISA competition vs. ManLAM for CS40 mAb; type: binding; conditions: 50 μg/ml of peptide
Experimental: ELISA competition assay was performed as described [Kaur, D., et al. Microbiology 148:3049-3057 (2002)]. Briefly, plates were coated with 0.5 μg/well ManLAM. Plates were blocked as described above. The CS40 mAb (diluted 1:2000) was mixed with various concentrations of either phage particles in TBS/1% BSA (0-1×10^18 particles/well) or peptides in PBS/1% BSA (0-200 μg/well). […] After washing (PBS), the ELISA procedure was performed as described above. Samples were all tested in triplicate.

CS40 mAb = assay: Direct peptide ELISA with CS40 mAb; type: binding
[2] = system: IgG antibodies in sera of Mtb-infected mice; type: binding, BALB/c mice
[3] = system: serum antibodies of TB patients; assay: ELISA of human TB patients' sera on ManLAM or B11 coated plates; type: binding
Text: Marchal (Pasteur Institute, Paris).

[4] = system: THP-1 human monocyte cell line; assay: FITC-labeled peptide binding to THP-1 (FACS); type: cell-based
Experimental: (§1) RAW 264.7 cells were grown in a 250-ml flask, washed 3 times in cold PBS, and harvested, THP-1 cells were grown to 10^6/ml in 250-ml flask, centrifuged at 3000 rpm for 10 min, then washed 3 times in cold PBS. Cells were then incubated for 15 min at 37° C., with the FITC-labeled peptide diluted 1:50, then washed 3 times in cold PBS. The fluorescence levels of 10,000 cell counts were determined by FACS (Becton Dickinson, Franklin Lakes, N.J.) and analyzed by CELLQuest™ software. Assay of competitive binding between D-mannose and the FITC-labeled B11 peptide was performed according to Nguyen and Hildreth [Nguyen, D. G., and Hildreth, J. E. Eur J Immunol 33:483-493 (2003)].

[5] = system: RAW 264.7 macrophage cell line; assay: Cytokine secretion in RAW 264.7 cells (cytokine ELISA); type: cell-based, murine
RAW 264.7 cell line = assay: Apoptosis of RAW 264.7 cells; type: cell-based, murine
primary spleen cells = assay: Proliferation of primary spleen cells; type: cell-based, BALB/c mice
LPS-induced symptoms [6] = assay: LPS mice model; type: in vivo, BALB/c mice
Experimental: Female BALB/c mice, 6-7 weeks old were injected i.p. with 150 μg LPS (Sigma) per mouse.
Treatment with peptide was performed four days before LPS injection, (i.p. 200 μg peptide per mouse).

allergic peritonitis = assay: OVA induced allergic peritonitis model; type: in vivo, BALB/c mice
Experimental: For induction of allergic peritonitis, female BALB/c mice, 5-6 weeks old, were sensitized twice on days 1 and 7 by subcutaneous (s.c.) injection of 0.4 ml of a 0.9% solution of NaCl containing 100 μg ovalbumin (OVA) adsorbed on 1.6 mg Al(OH)3 (all Sigma) the mice received a second dose of the same s.c. injection. On day 11 Peritonitis was induced by the intraperitoneal (i.p.) injection of 0.4 ml of a solution containing 5 μg/ml OVA diluted in saline [Temkin V. et al., Cytokine. 24:74-80. (2003)]. Negative control group were sensitized with saline. On day 12 mice were sacrificed (24 h after challenge (peritonitis induction)), and the peritoneal cavity was washed with 5 ml of Tyrode buffer (3 mmol/L potassium chloride, 10 mmol/L sodium hydrogen carbonate, 20 mmol/L sodium chloride, 0.36 mmol/L sodium phosphate, 0.1% glucose (all Sigma)) containing 0.1% gelatin (TG buffer). Peritoneal lavage fluid was centrifuged (5 minutes, 150 g), supernatants were saved for cytokine ELISA, and cell pellets were re-suspended in 2 ml of TG buffer for eosinophil quantification. Cells were stained for 30 min. with Phycoerytrin (PE)-labeled anti-CCR3Ab (0.625 μg/ml; R&D systems, Abingdon, UK) and eosinophils were defined as cells expressing the eotaxin receptor CCR3 [Grimaldi et al., J Leukoc Biol. 65:846-53. (1999)] by FACS analysis.
Mice treated with B11 peptide were treated i.p. with 200 μg/mouse 1 hour before sensitizations (Group-S), 1 hour before challenge (Group-C), and 1 hour before both sensitizations and challenge (Group-S+C).
(§2) Cytokine levels in mouse sera, cell supernatants, peritoneum lavage, and BALF were assessed by ELISA tests using commercial pairs of antibodies and recombinant cytokines for TNFα IFN-γ, IL-10 and IL-4 (Pharmingen International, Oxford, UK), and IL-12 (Biosource International, Camarillo, Calif.) according to the manufacturer's instructions. The ranges of the sensitivities of the ELISA for the murine cytokines were 15-200 pg/ml for TNF-α, IFN-γ, IL-10, and IL-4, and 15-500 pg/ml for IL-12.

allergic asthma = assay: OVA induced allergic asthma model; type: in vivo, mice
Experimental: For the induction of allergic asthma, mice were sensitized with OVA (Grade V, Sigma) adsorbed to Al(OH)3 gel (Aldrich Chemical Company, Milwaukee, Wis.), using 8 mg OVA/2 ml gel/0.5 ml H2O, pH 7.0-7.5, given intraperitoneally on days 0 and 14. On days 24 and 27 mice were challenged (induction of allergic asthma) with OVA i.n. Negative control group were sensitized with saline. The sensitization and challenge protocol used is an adaptation of a reported procedure [Blyth D. et al., Am. J. Respir. Cell Mol. Biol., 14: 425-438. (1996)].
Twenty-four hours after the second challenge mice were sacrificed. Bronchoalveolar lavage (BAL) was performed with PBS. Eosinophils in Bronchoalveolar lavage fluid (BALF) were detected as described above. Cytokine ELISA was performed to determine cytokine levels in BALF.
Mice treated with B11 peptide were treated with 200 μg/mouse 2 days before sensitizations (Group-S i.p.), 2 days before challenges i.p. (Group-C i.p.), or 1 hour before challenge i.n. (Group-C i.n.) and 2 days both before sensitization and challenge (Group-S+C i.p.).
Lung were excised and examined histologically and photographed after staining with haematoxylin and eosin.
as §2

TNBS induced colitis = assay: TNBS induced colitis; type: in vivo, C57BL/6 mice
Experimental: In Specific pathogen-free male 4 month old C57BL/6 mice lightly anesthetized a 3.5F catheter was carefully inserted into the colon (4 cm proximal to the anus) administering 0.5 mg of the hapten reagent TNBS (Sigma) in 50% ethanol into the lumen of the colon at days 1 and 5. Animals were then kept in a vertical position for […] and returned to their cages. The mice were monitored for weight loss, behavior, appearance and diarrhea for 11 days. On day 11 mice were sacrificed and tested from macroscopic inflammation symptoms in the spleen, liver and colon [Neurath M. et al., J Exp Med. 182:1281-90. (1995)].
Mice treated with B11 peptide were treated i.p. with 200 μg/mouse on days 1 and 5.

LPS-induced symptoms [7] = assay: LPS mice model; type: in vivo, BALB/c mice; conditions: B11 post-treatment, LPS 150 μg i.p.
[8] = system: macrophage cell line RAW 264.7; assay: FITC-labeled peptide binding to RAW 264.7 (confocal microscopy, FACS); type: cell-based, murine
Experimental: B11 peptide (50 μg) was conjugated to FITC (Biotium, Hayward, Calif.) as described by Sethi et al., [Sethi, K. K., et al. Cell Motil Cytoskeleton 52:231-241 (2002)]. For confocal microscopy, RAW 264.7 cells were grown in 8-well glass slides, Chamber Slide™ (Nunc), as described above. Cells were washed three times in cold PBS and incubated with the FITC-labeled mimotope for 5 min at 4° C. in serial dilutions of 1:2-1:100 in cold PBS. Slides were imaged immediately with a Zeiss 410 confocal laser scanning microscope.
as §1

[9] = Groups S, C and S+C vs Group OVA, 200 μg i.p.

Substance: ISLTEWSMWYRH (random phage display library) [B11 peptide]
- decrease in OD in competitive ELISA [1]: 100%
- binding to CS40 mAb by direct ELISA (CS40 mAb): bound the CS40 mAb
- IgG Abs in sera binding the coated antigen [2]: significantly higher than those of the naive mice
- anti-peptide antibody titers in BCG-vaccinated individuals ([3]; BCG-vaccinated vs TB patients): significantly lower than in TB patients
- titers of antigen-binding antibodies in sera of TB patients ([3]; TB patients vs healthy individuals): Significantly higher titers
- binding to THP-1 [4]: Binds
- inhibition of IL-12 secretion ([5]; LPS-IFN-γ-activated RAW 264.7): 20%
- production of IL-12 ([5]; non-activated RAW 264.7): not induced
- production of IL-6 ([5]; non-activated RAW 264.7, data not shown): not induced
- inhibition of apoptosis (RAW 264.7 cell line; LPS-IFN-γ-activated RAW 264.7): 30%
- induction of apoptosis (RAW 264.7 cell line; non-activated RAW 264.7): did not induce apoptosis
- inhibition of proliferation (primary spleen cells; spleen cells of Mtb infected mice): 40-50%
- inhibition of proliferation (primary spleen cells; spleen cells of adjuvant stimulated mice): 40-50%
- inhibition of proliferation (primary spleen cells; spleen cells of naive mice): 40-50%
- State after LPS-B11 pre-treatment (LPS-induced symptoms [6]; 1 hr post LPS injection): healthy
- State after LPS-B11 pre-treatment (LPS-induced symptoms [6]; 20 hr post LPS injection): Healthy
- State after LPS-B11 pre-treatment (LPS-induced symptoms [6]; 48 hr post LPS injection): Healthy
- LPS symptoms (appearance, behavior, curing rate) (LPS-induced symptoms [6]; pre-treated i.p. 200 μg 4 days before LPS): milder LPS symptoms
- eosonophil levels in peritoneum lavage (allergic peritonitis; 200 μg one hour before challenge with OVA): as in the control group
- IFN-γ levels in peritoneum lavage (allergic peritonitis; [9]): significantly lower
- IL-10 levels in peritoneum lavage (allergic peritonitis; [9]): significantly lower
- IL-12 levels in peritoneum lavage (allergic peritonitis; [9]): significantly lower
- eosonophil levels in BALF (allergic asthma; S i.p., C i.p., S+C i.p. and C i.n. vs OVA mice, 200 μg, FACS): significantly lower
- IL-12 in BALF (allergic asthma; all mice treated i.p.): significantly lower
- IL-10 in BALF (allergic asthma; i.n. before challenge, i.p. both before sensitization and challenge): significantly lower
- TNF-α in BALF (allergic asthma; i.p. and i.n. before challenge): significantly lower
- IL-4 in BALF (allergic asthma; i.p. and i.n. before challenge, i.p. both before sensitization and challenge): significantly lower
- inflammation in lung histology (allergic asthma; treated i.p. before sensitizations or before challenges): no inflammation was observed
- appearance, behavior, diarrhea, weight loss (TNBS induced colitis; all 11 days of experiment, all treated mice): normal appearance and behavior, and no diarrhea or weight loss
- colons normal in color and thickness (TNBS induced colitis; day 11): 50%
- colons with lesions (TNBS induced colitis; day 11): None
- macroscopic inflammation symptoms of colon, spleen and liver (TNBS induced colitis; day 11): reduced
- treated mice with spleen and liver normal in size and colorization (TNBS induced colitis; day 11): 75%
- colitis symptoms (TNBS induced colitis; i.p. 200 μg at days 1 and 5): reduced the colitis symptoms
- LPS-induced effects (LPS-induced symptoms [7]): successfully reduced the LPS-induced effects

Substance: FITC-conjugated B11 peptide: B11 peptide conjugated to FITC (ISLTEWSMWYRH; also: FITC conjugated)
- binding to macrophages in presence of D-mannose ([8]; FACS, 0.125 M D-mannose): inhibited by D-mannose
- binding to RAW 264.7 ([8]; confocal microscopy and FACS): bound the macrophage cell line RAW 264.7
- binding to THP-1 in presence of D-mannose ([4]; 0.125 M D-mannose): inhibited by D-mannose

Substance: CISLTEWSMWYRH [B11 peptide with an additional cysteine residue at the amino terminus]
- binding properties to ManLAM-binding antibodies ([2]; peptide with extra cysteine at amino terminus): maintained binding properties
